{
  "source": "paper PMC10823224",
  "about": "“γδ T cell antigen receptor polyspecificity enables T cell responses to a broad range of immune challenges” (Proceedings of the National Academy of Sciences of the …, 2024)",
  "biological_target": "T1, human recombinant TG2 (Homo sapiens, UniProt P21980)",
  "T1 construct": "gene TGM2; recombinant, enzymatically active",
  "T1 sequence (P21980 2-687)": "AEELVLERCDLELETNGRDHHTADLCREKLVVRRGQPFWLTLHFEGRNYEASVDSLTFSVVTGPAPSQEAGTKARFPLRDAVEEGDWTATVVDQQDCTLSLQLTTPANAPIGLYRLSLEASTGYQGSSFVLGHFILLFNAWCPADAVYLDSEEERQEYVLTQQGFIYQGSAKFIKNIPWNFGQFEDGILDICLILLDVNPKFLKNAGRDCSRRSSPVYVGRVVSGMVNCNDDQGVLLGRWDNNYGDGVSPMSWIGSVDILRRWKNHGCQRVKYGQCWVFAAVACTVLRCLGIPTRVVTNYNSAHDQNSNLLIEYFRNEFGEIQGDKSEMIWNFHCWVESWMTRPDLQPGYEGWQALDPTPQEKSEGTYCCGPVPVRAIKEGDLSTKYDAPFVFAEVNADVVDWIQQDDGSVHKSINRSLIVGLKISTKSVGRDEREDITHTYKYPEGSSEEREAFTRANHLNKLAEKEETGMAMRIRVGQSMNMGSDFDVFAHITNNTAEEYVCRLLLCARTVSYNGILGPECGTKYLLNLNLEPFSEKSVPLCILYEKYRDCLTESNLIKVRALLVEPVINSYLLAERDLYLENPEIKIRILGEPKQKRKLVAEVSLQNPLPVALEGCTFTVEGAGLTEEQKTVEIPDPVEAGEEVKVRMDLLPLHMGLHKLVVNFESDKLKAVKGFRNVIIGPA",
  "test": "in vitro serotonylation of Rac1 peptide, ESI-MS",
  "format": "biochemical",
  "conditions": "1 mM serotonin, biotinylated Rac1 peptide co-substrate, 10 mM CaCl2, pH 7.4, 37 °C overnight",
  "data": [
    {"smiles": "NCCc1c[nH]c2ccc(O)cc12", "note": "[5-HT]", "values": [
      {"measurement": "in vitro serotonylation of Rac1 peptide, ESI-MS", "value": "the peptide was modified with a single serotonin moiety"}
    ]}
  ]
}
